According to ChEMBL document CHEMBL3856205, “Synthesis and biological evaluation of novel 4-hydroxytamoxifen analogs as estrogen-related receptor gamma inverse agonists” (Eur J Med Chem, 2016):

Legend:
in vitro [1] = conditions: rat, liver microsomes
Description: Metabolic stability in rat liver microsomes assessed as compound remaining at 1 uM after 30 mins in presence of NADPH by LC-MS/MS analysis

[2] = target: T1, Estrogen-related receptor gamma (Homo sapiens, UniProt P62508)
T1 sequence (P62508 whole entry): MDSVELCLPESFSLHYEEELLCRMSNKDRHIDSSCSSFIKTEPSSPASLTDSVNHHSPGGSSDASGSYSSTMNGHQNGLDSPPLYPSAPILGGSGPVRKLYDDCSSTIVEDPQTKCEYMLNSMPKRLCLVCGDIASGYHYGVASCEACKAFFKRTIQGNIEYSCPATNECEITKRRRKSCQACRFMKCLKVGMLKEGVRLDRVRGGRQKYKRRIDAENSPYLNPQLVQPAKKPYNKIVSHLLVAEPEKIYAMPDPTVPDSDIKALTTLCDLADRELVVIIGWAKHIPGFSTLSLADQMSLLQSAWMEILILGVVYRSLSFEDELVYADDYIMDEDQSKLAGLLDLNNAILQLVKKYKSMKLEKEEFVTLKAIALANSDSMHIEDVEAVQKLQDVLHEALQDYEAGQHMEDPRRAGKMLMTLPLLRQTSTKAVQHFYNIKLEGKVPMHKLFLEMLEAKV
Description: Inhibition of fluorescien-conjugated coactivator PGC1a binding to GST-tagged human ERRgamma LBD after 1 hr by TR-FRET assay

CYP2C19 = CYP2C19 (Homo sapiens, UniProt P33261); assay: Inhibition of CYP2C19 in human liver microsomes assessed as remaining activity by measuring S-mephenytoin 4-hydroxylase activity at 10 uM pre-incubated for 5 mins followed by NADPH regenerating system addition by LC-MS/MS analysis relative to control; type: ADME; conditions: probe S-mephenytoin (4-hydroxylation), read-out: Activity
Estrogen receptor = target: T2, Estrogen receptor (Homo sapiens, UniProt P03372)
T2 sequence (P03372 whole entry): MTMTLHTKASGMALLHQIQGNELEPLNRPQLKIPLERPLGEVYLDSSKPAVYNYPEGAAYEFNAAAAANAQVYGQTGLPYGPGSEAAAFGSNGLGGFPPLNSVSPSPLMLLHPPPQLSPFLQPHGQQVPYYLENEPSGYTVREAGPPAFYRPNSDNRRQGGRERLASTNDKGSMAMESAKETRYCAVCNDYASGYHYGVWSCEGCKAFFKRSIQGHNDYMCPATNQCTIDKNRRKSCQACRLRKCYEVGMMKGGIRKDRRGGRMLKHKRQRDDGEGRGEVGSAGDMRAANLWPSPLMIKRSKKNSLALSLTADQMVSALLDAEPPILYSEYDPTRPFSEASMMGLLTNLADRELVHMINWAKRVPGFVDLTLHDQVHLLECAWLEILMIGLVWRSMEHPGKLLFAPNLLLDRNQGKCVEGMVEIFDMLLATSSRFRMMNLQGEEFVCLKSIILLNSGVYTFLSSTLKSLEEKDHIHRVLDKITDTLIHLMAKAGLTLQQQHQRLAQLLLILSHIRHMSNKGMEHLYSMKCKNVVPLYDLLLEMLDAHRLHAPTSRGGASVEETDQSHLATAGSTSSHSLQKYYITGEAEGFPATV
Description: Inhibition of fluorescien-conjugated coactivator PGC1a binding to ERalpha (unknown origin) after 1 hr by TR-FRET assay

CYP2C9 = CYP2C9 (Homo sapiens, UniProt P11712); assay: Inhibition of CYP2C9 in human liver microsomes assessed as remaining activity by measuring tolbutamide 4-hydroxylase activity at 10 uM pre-incubated for 5 mins followed by NADPH regenerating system addition by LC-MS/MS analysis relative to control; type: ADME; conditions: probe tolbutamide (4-hydroxylation), read-out: Activity
[3] = Permeability of the compound in PBS at pH 7.4 at 10 uM after 5 hrs by LC-MS/MS analysis; type: ADME; conditions: not told, read-out: permeability
[4] = target: T3, Steroid hormone receptor ERR1 (Homo sapiens, UniProt P11474); assay: Inhibition of fluorescien-conjugated coactivator PGC1a binding to ERRalpha (unknown origin) after 1 hr by TR-FRET assay
T3 sequence (P11474 whole entry): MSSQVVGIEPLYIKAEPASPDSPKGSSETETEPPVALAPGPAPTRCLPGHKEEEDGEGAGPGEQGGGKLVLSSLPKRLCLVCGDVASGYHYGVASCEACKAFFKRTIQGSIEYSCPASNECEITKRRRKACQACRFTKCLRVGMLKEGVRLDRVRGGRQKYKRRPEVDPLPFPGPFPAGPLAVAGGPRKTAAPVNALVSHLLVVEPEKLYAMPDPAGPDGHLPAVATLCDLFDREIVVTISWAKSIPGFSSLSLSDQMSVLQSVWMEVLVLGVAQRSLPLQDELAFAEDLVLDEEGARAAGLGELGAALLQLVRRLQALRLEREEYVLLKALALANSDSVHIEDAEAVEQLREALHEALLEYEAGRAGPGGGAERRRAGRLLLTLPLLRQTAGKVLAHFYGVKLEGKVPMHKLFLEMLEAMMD

[5] = target: T1, Estrogen-related receptor gamma; remark: listed apart in the source
Description: Inverse agonist activity at ERRgamma (unknown origin) expressed in human AD293 cells after 24 hrs by beta-galactosidase/luciferase reporter gene assay

in vitro [6] = conditions: mouse, liver microsomes
Description: Metabolic stability in mouse liver microsomes assessed as compound remaining at 1 uM after 30 mins in presence of NADPH by LC-MS/MS analysis

in vitro [7] = conditions: human, liver microsomes
Description: Metabolic stability in human liver microsomes assessed as compound remaining at 1 uM after 30 mins in presence of NADPH by LC-MS/MS analysis

CYP3A4 = CYP3A4 (Homo sapiens, UniProt P08684); assay: Inhibition of CYP3A4 in human liver microsomes assessed as remaining activity by measuring midazolam 1'-hydroxylase activity at 10 uM pre-incubated for 5 mins followed by NADPH regenerating system addition by LC-MS/MS analysis relative to control; type: ADME; conditions: probe midazolam (1'-hydroxylation), read-out: Activity
[8] = target: T4, Steroid hormone receptor ERR2 (Homo sapiens, UniProt O95718); assay: Inhibition of fluorescien-conjugated coactivator PGC1a binding to ERRbeta (unknown origin) after 1 hr by TR-FRET assay
T4 sequence (O95718 whole entry): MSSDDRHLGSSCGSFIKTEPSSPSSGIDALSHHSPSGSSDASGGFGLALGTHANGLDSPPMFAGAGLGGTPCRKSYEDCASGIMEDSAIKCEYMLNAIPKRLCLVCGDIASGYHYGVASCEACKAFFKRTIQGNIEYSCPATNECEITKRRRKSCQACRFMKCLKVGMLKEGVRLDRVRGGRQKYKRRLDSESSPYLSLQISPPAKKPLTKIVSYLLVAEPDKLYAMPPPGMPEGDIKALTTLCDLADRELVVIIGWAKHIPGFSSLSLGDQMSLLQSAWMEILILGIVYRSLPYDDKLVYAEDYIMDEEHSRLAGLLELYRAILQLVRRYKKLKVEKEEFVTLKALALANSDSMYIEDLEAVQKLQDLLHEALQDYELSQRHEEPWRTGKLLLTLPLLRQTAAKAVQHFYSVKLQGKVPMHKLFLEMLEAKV

[9] = Metabolic stability in dog liver microsomes assessed as compound remaining at 1 uM after 30 mins in presence of NADPH by LC-MS/MS analysis; type: ADME, Canis lupus familiaris; conditions: read-out: Stability
CYP1A2 = target: T5, CYP1A2 (Homo sapiens, UniProt P05177); assay: Inhibition of CYP1A2 in human liver microsomes assessed as remaining activity by measuring phenacetin O-deethylase activity at 10 uM pre-incubated for 5 mins followed by NADPH regenerating system addition by LC-MS/MS analysis relative to control; type: ADME; conditions: probe phenacetin (O-deethylation), read-out: Activity
T5 sequence (P05177 whole entry): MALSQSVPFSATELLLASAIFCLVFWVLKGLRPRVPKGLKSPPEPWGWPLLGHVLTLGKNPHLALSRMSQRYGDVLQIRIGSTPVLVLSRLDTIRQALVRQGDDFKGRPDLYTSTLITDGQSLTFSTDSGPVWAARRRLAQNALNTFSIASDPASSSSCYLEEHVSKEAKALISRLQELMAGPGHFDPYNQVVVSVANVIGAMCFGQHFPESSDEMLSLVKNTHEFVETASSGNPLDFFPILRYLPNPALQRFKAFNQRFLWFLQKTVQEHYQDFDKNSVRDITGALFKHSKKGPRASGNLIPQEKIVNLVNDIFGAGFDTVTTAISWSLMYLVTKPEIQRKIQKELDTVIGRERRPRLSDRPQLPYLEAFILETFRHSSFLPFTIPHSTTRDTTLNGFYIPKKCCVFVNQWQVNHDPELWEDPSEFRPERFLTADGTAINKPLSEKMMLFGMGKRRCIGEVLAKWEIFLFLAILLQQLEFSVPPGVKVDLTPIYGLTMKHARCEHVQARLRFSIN

CYP2D6 = CYP2D6 (Homo sapiens, UniProt P10635); assay: Inhibition of CYP2D6 in human liver microsomes assessed as remaining activity by measuring dextromethorphan O-demethylase activity at 10 uM pre-incubated for 5 mins followed by NADPH regenerating system addition by LC-MS/MS analysis relative to control; type: ADME; conditions: probe dextromethorphan (O-demethylation), read-out: Activity
Chain of CYP2D6 (P10635 whole entry): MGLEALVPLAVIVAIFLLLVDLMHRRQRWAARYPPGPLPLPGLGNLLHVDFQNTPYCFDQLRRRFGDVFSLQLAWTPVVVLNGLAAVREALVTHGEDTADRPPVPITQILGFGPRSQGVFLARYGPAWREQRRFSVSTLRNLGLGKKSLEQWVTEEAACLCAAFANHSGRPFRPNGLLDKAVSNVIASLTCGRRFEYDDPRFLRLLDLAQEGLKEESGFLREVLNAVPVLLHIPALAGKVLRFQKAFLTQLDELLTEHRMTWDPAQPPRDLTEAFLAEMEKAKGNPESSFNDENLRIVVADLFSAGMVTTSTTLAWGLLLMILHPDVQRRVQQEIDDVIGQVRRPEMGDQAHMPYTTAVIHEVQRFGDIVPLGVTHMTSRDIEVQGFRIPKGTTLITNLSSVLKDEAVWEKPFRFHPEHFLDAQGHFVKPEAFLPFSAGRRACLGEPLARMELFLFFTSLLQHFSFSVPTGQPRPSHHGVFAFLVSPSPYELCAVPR

Chain of CYP2C9 (P11712 whole entry): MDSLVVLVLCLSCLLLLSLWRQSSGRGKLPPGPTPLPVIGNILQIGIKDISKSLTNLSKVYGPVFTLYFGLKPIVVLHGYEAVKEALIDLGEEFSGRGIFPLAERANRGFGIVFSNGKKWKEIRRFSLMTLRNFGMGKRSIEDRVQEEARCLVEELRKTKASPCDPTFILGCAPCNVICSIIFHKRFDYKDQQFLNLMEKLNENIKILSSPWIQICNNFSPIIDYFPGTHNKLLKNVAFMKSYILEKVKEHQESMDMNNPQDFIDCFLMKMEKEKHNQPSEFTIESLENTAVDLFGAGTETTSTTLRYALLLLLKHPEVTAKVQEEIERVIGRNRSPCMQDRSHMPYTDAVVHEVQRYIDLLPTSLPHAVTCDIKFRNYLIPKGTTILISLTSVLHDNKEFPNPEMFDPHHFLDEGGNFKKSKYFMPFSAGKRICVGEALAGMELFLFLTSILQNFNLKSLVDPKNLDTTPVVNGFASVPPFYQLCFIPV
Chain of CYP3A4 (P08684 whole entry): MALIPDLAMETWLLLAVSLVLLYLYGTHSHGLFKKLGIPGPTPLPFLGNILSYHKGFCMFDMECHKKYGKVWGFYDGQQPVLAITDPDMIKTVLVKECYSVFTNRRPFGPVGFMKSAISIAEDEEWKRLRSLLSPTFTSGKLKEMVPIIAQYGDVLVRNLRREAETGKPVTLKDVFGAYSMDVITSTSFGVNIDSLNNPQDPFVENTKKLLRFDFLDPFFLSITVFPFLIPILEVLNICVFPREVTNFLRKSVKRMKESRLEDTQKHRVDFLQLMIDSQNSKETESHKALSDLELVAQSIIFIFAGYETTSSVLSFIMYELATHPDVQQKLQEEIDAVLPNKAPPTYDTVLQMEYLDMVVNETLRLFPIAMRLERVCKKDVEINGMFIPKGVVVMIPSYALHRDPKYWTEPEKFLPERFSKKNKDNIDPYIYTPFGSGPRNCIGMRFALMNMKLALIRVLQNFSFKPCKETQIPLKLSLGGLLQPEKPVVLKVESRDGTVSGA
Chain of CYP2C19 (P33261 whole entry): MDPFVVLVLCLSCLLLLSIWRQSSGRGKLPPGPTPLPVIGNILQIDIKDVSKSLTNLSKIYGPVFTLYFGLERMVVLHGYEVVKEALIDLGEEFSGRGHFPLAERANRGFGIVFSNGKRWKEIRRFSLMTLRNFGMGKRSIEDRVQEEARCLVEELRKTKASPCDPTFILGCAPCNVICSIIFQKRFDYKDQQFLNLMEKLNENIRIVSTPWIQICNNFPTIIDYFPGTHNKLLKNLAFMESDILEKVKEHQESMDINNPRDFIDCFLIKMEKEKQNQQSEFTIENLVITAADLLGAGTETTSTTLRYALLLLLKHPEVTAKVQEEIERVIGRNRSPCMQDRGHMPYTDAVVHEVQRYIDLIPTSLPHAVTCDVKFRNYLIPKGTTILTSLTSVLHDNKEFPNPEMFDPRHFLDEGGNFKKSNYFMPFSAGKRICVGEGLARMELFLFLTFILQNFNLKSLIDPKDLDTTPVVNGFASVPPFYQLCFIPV

SMILES	remaining at 0.5 h, 1 µM (in vitro [1])	IC50 [2]	activity at 10 µM (CYP2C19)	IC50 (Estrogen receptor)	activity at 10 µM (CYP2C9)	Papp at 5 h, 10 µM [3]	IC50 [4]	IC50 [5]	remaining at 0.5 h, 1 µM (in vitro [6])	remaining at 0.5 h, 1 µM (in vitro [7])	activity at 10 µM (CYP3A4)	IC50 [8]	remaining at 0.5 h, 1 µM [9]	activity at 10 µM (CYP1A2)	activity at 10 µM (CYP2D6)
CN(C)CCOc1ccc(/C(=C(/CCCO)c2ccccc2)c2ccc(Br)cc2)cc1.Cl	30%	117 nM	61%	> 10000 nM	86%	6.52 ×10⁻⁶ cm/s	> 10000 nM	719 nM	35%	42%	88%	6950 nM	5.8%	> 100%	99%
CNCCOc1ccc(/C(=C(/CCCO)c2ccccc2)c2ccc(O)cc2)cc1.Cl	79%	190 nM	76%	3340 nM	44%	0.03 ×10⁻⁶ cm/s	> 10000 nM	187 nM	20%	83%	85%	> 10000 nM	76%	91%	89%
Cc1ccc(/C(=C(\CCCO)c2ccccc2)c2ccc(OCCN(C)C)cc2)cc1.Cl	25%	270 nM	> 100%	> 10000 nM	60%	9.94 ×10⁻⁶ cm/s	> 10000 nM	669 nM	16%	59%	> 100%	> 10000 nM	13%	> 100%	> 100%
